{"source": "patent US10145848B2", "about": "“Small-molecule hydrophobic tagging of fusion proteins and induced degradation of same” (YALE UNIVERSITY, priority 2010, dated 2018)", "key": {"[1]": {"test_system": "NIH-3T3 cells infected with HA-HaloTag(D106A)-H-RasG12V", "assay": "Focus formation assay, HA-HaloTag(D106A)-H-RasG12V cells", "assay_type": "cell-based, mouse", "settings": "1 μM, 1% FBS, day 6", "experimental": "One hundred thousand NIH-3T3 cells infected with HA-HaloTag-H-RasG12V and HA-HaloTag(D106A)-H-RasG12V were plated onto 10-cm cell culture plates in 10% FBS with DMEM. The next day, the media was replaced with 1% FBS media and the cells were administered either vehicle or 1 μM HyT13. The media and the drug were replaced every two days. On day 6, the foci were photographed and counted as the number of distinct foci per 1-cm^2 area.\nWe next explored the functional utility of HaloTag-based degradation of an oncogene by HyT13 both in cell culture and in mice. The small GTPase H-Ras is one of the most commonly mutated genes in cancer, with up to […] of cancers harboring activating mutations in this gene^35. Activating mutations, such as the H-RasG12V allele, lead to decreased dependence on extracellular mitogenic signals. […] When H-RasG12V expressing cells are grown in culture under low serum conditions they lose cell-to-cell contact inhibition and form distinct foci instead of growing as a cellular monolayer. Furthermore, these transformed cells are capable of tumor formation when injected into immuno-compromised nude mice^36,37. We investigated whether (1) HaloTag-H-RasG12V driven focus formation can be suppressed in NIH-3T3 cells and (2) HaloTag-H-RasG12V driven tumor burden in mice can be reduced by administration of HyT13. […]"}, "HA-HaloTag-H-RasG12V": {"molecular_target": "T1, HA-HaloTag-H-RasG12V (Rhodococcus rhodochrous, UniProt P0A3G2, C176G/H272F/K175M/Y273L)", "T1 construct": "The HaloTag protein was obtained from pHT2 vector (Promega); H-Ras carrying G12V (fusion partner, same polypeptide); expressed in transfected cells; host or cells: NIH-3T3, retroviral infection (pEYK3.1)", "assay": "Immunoblotting of HA-HaloTag-H-RasG12V in NIH-3T3 cells", "assay_type": "cell-based", "settings": "1 μM, 24 hours", "experimental": "(a) NIH-3T3 cells were retrovirally infected with a construct expressing either HA-HaloTag-HRas(G12V) or HA-HaloTag(D106A)-HRas(G12V). The cells were then treated with vehicle or 1 μM HyT13 for 24 hours. The lysates were prepared for immunoblotting and the blots were probed with anti-HA and anti-β-actin antibodies. (b) One hundred thousand NIH-3T3 cells infected with HA-HaloTag-HRas(G12V) or HA-HaloTag(D106A)-HRas(G12V) were plated in 10% FBS containing medium onto 10-cm plates. The next day, the medium was replaced with 1% FBS containing medium, along with vehicle or 1 μM HyT13. The media was refreshed every 2 days, and the plates were pictured on day 6. Bar, 5 mm. (c) Quantification of foci as described in (b). The number of foci/cm^2 was counted from three separate plates, with error bars representing SEM. […] Tumor size was measured daily, and the tumor volume was calculated. […]\nThe indicated cells were washed twice with cold PBS and the cells were lysed in lysis buffer (1×PBS, 1% NP-40, 1 mM EDTA, 40 mM HEPES) with protease inhibitors. […] The total protein concentration was determined by Bradford assay and 50 μg of protein was loaded onto an 8% Bis-Tris gel. […] The blots were processed by standard procedures with indicated antibodies, and the band intensities were quantified by ImageJ. […]"}, "HEK293 or HeLa cells": {"test_system": "HEK293 or HeLa cells", "assay": "Cell viability with Resazurin (alamarBlue)", "assay_type": "cell-based", "settings": "up to 20 μM, 24 hours", "experimental": "HEK293 or HeLa cells were treated with indicated concentrations of HyT13 for 24 hours. The oxidation-reduction indicator Resazurin (alamarBlue, Invitrogen) was employed to determine cell viability."}, "[2]": {"assay": "Maximum tolerated dose experiment / weight gain in nude mice", "assay_type": "in vivo", "excerpt": "Nude mice were daily IP injected with indicated concentrations of HyT13 and were monitored for weight gain during the 14-day experiment. Shown is the percent weight gained during the 14-day period for each treatment group ±SEM. Each treatment group consisted of 7 mice.\nTo examine whether the HaloTag:HyT13 based system could be used in mouse models to relieve the H-RasG12V-driven tumor burden, we first evaluated the pharmacokinetics of HyT13. We performed a maximum tolerated dose experiment with HyT13 in nude mice at doses up to 100 mg/kg over a 14-day treatment regimen. […] Next, we sought to determine the serum bioavailability of HyT13 following injections. HyT13 was administered at 25 mg/kg by intraperitoneal (IP) injection into Swiss Webster mice and the serum was collected at 1 and 24 hours post-injection. At 1 hour post HyT13 administration the blood serum concentration was approximately 2 μM, and by 24 hours the HyT13 concentration had dropped to about 500 nM (FIG. 10). Based on our previous experiments in a cell culture setting, we speculated that these serum HyT13 concentrations would be sufficient to suppress H-RasG12V tumor formation in mice. To test this, we injected NIH-3T3 cells expressing HA-HaloTag-H-RasG12V into the flank of nude mice and on the same day started a daily treatment regimen of vehicle, 25 mg/kg HyT13 or 100 mg/kg HyT13. […]"}}, "note": "“Also recorded” adds a separate entry of the source.", "data": [{"smiles": "O=C(CC12CC3CC(CC(C3)C1)C2)NCCOCCOCCCCCCCl", "note": "[HyT13, 2-((3r,5r,7r)-Adamantan-1-yl)-N-(2-(2-((6-chlorohexyl)oxy)ethoxy)ethyl)acetamide]", "values": [{"measurement": "focus formation", "setting": "[1]", "result": "had formed many foci"}, {"measurement": "degradation of HA-HaloTag-H-RasG12V", "setting": "HA-HaloTag-H-RasG12V", "result": "readily degraded"}, {"measurement": "cellular toxicity", "setting": "HEK293 or HeLa cells", "result": "No cellular toxicity was observed; also recorded: lack of noticeable HyT13 cytotoxicity; also recorded: exhibits no toxicity"}, {"measurement": "weight gain", "setting": "[2]; mice injected daily at 100 mg/kg for 14 days", "result": "gained weight normally"}, {"measurement": "toxicity / phenotype in mice", "setting": "[2]; nude mice, daily IP, doses up to 100 mg/kg, 14 days", "result": "No obvious phenotype was observed; also recorded: no observed toxicity"}]}]}
